Reference: publication PMC9000710, “Synthesis and Hemostatic Activity of New Amide Derivatives” (Molecules, 2022)
“Also recorded” adds a separate entry of the source. Counter-ions that a name gives are not always drawn. Where a SMILES comes first, the peptide text is derived from it.

Experiments:
human blood plasma [1] = assay: Prothrombin time (PT) clotting assay; type: biochemical
Experimental: (§1) Human blood plasma was isolated from fresh buffy coats (collected onto the citrate-dextrose solution—ACD) purchased from the Regional Centre of Blood Donation and Blood Treatment in Lodz, Poland. In the isolation procedure, the buffy coats (60 mL units) were divided into volumes of 10 mL and centrifuged (4000 rpm/15 min) in 15 mL tubes. Next, 1 mL solutions of each amide 1–8 were prepared in distilled water at concentrations of 10, 25, and 50 mg/L. Then, 450 μL of plasma and 50 μL of each amide at the tested concentrations were placed into 1.5 mL vials. The vials were vortexed (Vortex Biosan V-1 plus), incubated at 37 °C on a thermoblock (Dry Block Thermostat Biosan TDB-120), and analyzed using a Kselmed K-3002 OPTIC coagulometer (Grudziądz, Poland), based on the manufacturer’s protocols (described below). The control sample was native blood plasma, untreated with any of the examined substances.
(§2) Fifty microliters of control plasma and plasma samples treated with the amides were transferred to measuring cuvettes and placed in the thermoblock module (37 °C) of a coagulometer (KSELMED, K-3002 Optic). Then, 100 μL of Dia-PT reagent (DIAGON Kft. Hungary; cat. no. 81100) was added. Measurements were started immediately.

human blood plasma [2] = assay: Clot formation and fibrinolysis (CFF) assay; type: biochemical; conditions: for Amax (maximum of fibrin clot absorbance at 360 nm) / VmaxC (of Fibrin Polymerization) / VmaxF (of Fibrin Clot Lysis): control plasma assumed as 100%, mean ± SD, n = 5–7; for effect on fibrin polymerization (VmaxC) in words: tested at 10, 25, 50 mg/L
From the text: The CFF assay enables analysis of both the blood plasma coagulation process and fibrinolysis efficiency. The thrombin enzyme in the reagent mixture initiates blood plasma fibrinogen polymerization, leading to an increase in absorbance in the sample until the maximal absorbance (Amax) is attained. The fibrinolytic activity of blood plasma is induced by the tissue-type plasminogen activator (t-PA). The activation of fibrinolysis in the tested samples leads to fibrin clot degradation and decreases the absorbance to the baseline.
Figure 11 An exemplary curve of blood plasma coagulation and clot lysis recorded during the clot formation and fibrinolysis (CFF) assay. The first step in the CFF test involves activation of the blood plasma coagulation cascade and fibrin clot formation (1). It is characterized by the maximal velocity of the fibrin polymerization parameter (VmaxC). The maximal absorbance (Amax) peak corresponds to the fibrin stabilization phase and is an indicator of fibrin clot thickness (2). The third step of the CFF assay covers the activation of fibrinolytic mechanisms and fibrin clot degradation (3) and is described by the maximal velocity of clot lysis (VmaxF).
Thrombin was purchased from BioMed (Lublin, Poland). A tissue-type plasminogen activator (Actilyse®) was purchased from Boehringer Ingelheim, Ingelheim am Rhein, Germany. Kinetic measurements were executed using a SpectrostarNano microplate spectrophotometer (BMG LabTech, Ortenberg, Germany).
Measurements were performed using a kinetic model, as described in our previous work. Briefly, blood plasma was preincubated with the examined substances (at final concentrations of 10, 25, and 50 mg/L) for 15 min at 37 °C. Then, 100 μL of blood plasma was added to microtiter plate wells, which was followed by 200 μL of the reagent mixture (0.75 U/mL thrombin, 225 ng/mL t-PA and 7.5 mM CaCl2) suspended in tris-buffered saline (0.05 M TBS, 0.9% NaCl; pH 7.4). Measurements of absorbance changes were started immediately and continued for 60 min at 37 °C, λ = 360 nm. The following parameters were used to determine the effects of the examined substances on the coagulation and fibrinolytic properties of the blood plasma: the maximal velocity of fibrinogen polymerization (VmaxC), which is an indicator of the plasma coagulation efficiency; the maximal absorbance (Amax), which is an indicator of the fibrin clot stabilization and its thickness; the maximal velocity of clot lysis (VmaxF), which is an indicator of blood plasma fibrinolytic activity.

[3] = Hemolysis assay (stability of erythrocytes); type: cell-based, human; conditions: male, human, heparinized whole blood diluted with saline (erythrocytes); for hemolysis at 45 min, 5 mg/L / hemolysis at 120 min, 5 mg/L / hemolysis at 240 min, 5 mg/L: c 5 mg/L; for hemolysis at 45 min, 50 mg/L / hemolysis at 120 min, 50 mg/L / hemolysis at 240 min, 50 mg/L: c 50 mg/L; for hemolysis at 45 min, 500 mg/L / hemolysis at 120 min, 500 mg/L / hemolysis at 240 min, 500 mg/L: c 500 mg/L
Experimental: Heparinized whole blood was used from a healthy volunteer. The whole blood (10 mL) was diluted with saline solution (90 mL). For each UV-Vis measurement, 2.5 mL of diluted blood was used. For each blood sample, 1 mL of a saline solution containing hydrochlorides 1–8 at concentrations of 5, 50, and 500 mg/L was added. As a control were used blood samples with the addition of 1% solution of DMSO in saline and 1% solution of SDS in saline. In all cases, the measurements were repeated twice for each concentration. […] The cells were centrifuged, and the absorbance of the supernatant, which contained plasma and lysed erythrocytes, was measured at 540 nm. The percentage of lysis was calculated from a standard curve of lysed erythrocytes treated with SDS [52].

human blood plasma [4] = assay: Activated partial thromboplastin time (aPTT) clotting assay; type: biochemical; conditions: for aPTT, effect versus control in words: tested at 10, 25, 50 mg/L
Experimental: as §1
as §2, with “of the” for “of a”, “Then, 50” for “Then, 100”, “of Dia-APTT” for “of Dia-PT”, “no. 72048) was added. The mixture was incubated for 180 s at 37 °C. Finally, 50 μL of reagent Dia-CaCl2 (DIAGON Kft. Hungary; cat. no. 41192)” for “no. 81100)”

human blood plasma [5] = assay: Thrombin time (TT) clotting assay; type: biochemical
Experimental: as §1
Both 100 μL of control plasma and plasma samples treated with the amides were transferred to measuring cuvettes, which were placed in the thermoblock module (37 °C) of the coagulometer (KSELMED K-3002 Optic). Then, 100 μL of thrombin solution (4.5 U/mL, in 0.9% NaCl; Biomed, Lublin, Poland) was added to the cuvette. Measurements were started immediately.

[6] = two lower concentrations (10 and 25 mg/L)

Row | Structure (SMILES) | PT Time [% of Control] (human blood plasma [1]; c 10 mg/L) | PT Time [% of Control] (human blood plasma [1]; c 25 mg/L) | PT Time [% of Control] (human blood plasma [1]; c 50 mg/L) | prothrombin time, effect versus control in words (human blood plasma [1]; [6]) | Amax (maximum of fibrin clot absorbance at 360 nm) (human blood plasma [2]; 10 mg/L) [%] | VmaxC (of Fibrin Polymerization) (human blood plasma [2]; 10 mg/L) [%] | VmaxF (of Fibrin Clot Lysis) (human blood plasma [2]; 10 mg/L) | Amax (maximum of fibrin clot absorbance at 360 nm) (human blood plasma [2]; 25 mg/L) [%] | VmaxC (of Fibrin Polymerization) (human blood plasma [2]; 25 mg/L) [%] | VmaxF (of Fibrin Clot Lysis) (human blood plasma [2]; 25 mg/L) | Amax (maximum of fibrin clot absorbance at 360 nm) (human blood plasma [2]; 50 mg/L) [%] | VmaxC (of Fibrin Polymerization) (human blood plasma [2]; 50 mg/L) [%] | VmaxF (of Fibrin Clot Lysis) (human blood plasma [2]; 50 mg/L) | hemolysis at 45 min, 5 mg/L [3] [%] | aPTT Time [% of Control] (human blood plasma [4]; c 10 mg/L) | aPTT Time [% of Control] (human blood plasma [4]; c 25 mg/L) | aPTT Time [% of Control] (human blood plasma [4]; c 50 mg/L) | TT Time [% of Control] (human blood plasma [5]; c 10 mg/L) | TT Time [% of Control] (human blood plasma [5]; c 25 mg/L) | TT Time [% of Control] (human blood plasma [5]; c 50 mg/L) | further results
1 | NCCCCCC(=O)NCC1CCC(C(=O)O)CC1 (stereo not shown) [Amide 3, 6-((((1s,4s)-4-Carboxycyclohexyl)methyl)amino)-6-oxohexan-1-aminium chloride] | 94.9 ± 2.2 % of Control | 95.2 ± 3.0 % of Control | 97.0 ± 3.6 % of Control | decreased | 107.21 ± 6.90 | 105.61 ± 7.06 | 93.23 ± 16.83% | 104.49 ± 9.80 | 103.88 ± 9.73 | 97.05 ± 24.39% | 112.98 ± 8.40 | 109.78 ± 6.46 | 102.82 ± 20.01% | 0.44 | 94.8 ± 4.5 % of Control | 94.7 ± 4.1 % of Control | 96.3 ± 2.8 % of Control | 100.1 ± 2.6 % of Control | 100.8 ± 6.9 % of Control | 97.2 ± 4.3 % of Control | hemolysis at 120 min, 5 mg/L [3]: 0.74%; hemolysis at 240 min, 5 mg/L [3]: 0.41%; hemolysis at 45 min, 50 mg/L [3]: 0%; hemolysis at 120 min, 50 mg/L [3]: 0%; hemolysis at 240 min, 50 mg/L [3]: 0.26%; hemolysis at 45 min, 500 mg/L [3]: 0.47%; hemolysis at 120 min, 500 mg/L [3]: 0.65%; hemolysis at 240 min, 500 mg/L [3]: 0.23%; aPTT, effect versus control in words (human blood plasma [4]): significantly decreased
2 | Cl.NCCCCCC(=O)NCCCCCC(=O)O [Amide 4, 6-(6-Aminohexanamido)hexanoic acid hydrochloride] | 97.3 ± 4.2 % of Control | 95.4 ± 2.3 % of Control | 93.7 ± 3.0 % of Control |  | 115.37 ± 8.73 | 107.93 ± 7.23 | 81.36 ± 21.07 % | 114.07 ± 15.71 | 105.85 ± 7.85 | 70.35 ± 16.30 % | 109.29 ± 9.02 | 105.89 ± 5.64 | 55.95 ± 10.51 % | 1 | 98.1 ± 5.2 % of Control | 97.4 ± 5.4 % of Control | 99.9 ± 6.0 % of Control | 96.3 ± 6.9 % of Control | 95.5 ± 8.8 % of Control | 97.6 ± 5.0 % of Control | prothrombin time, effect versus control in words (human blood plasma [1]; two higher concentrations (25 and 50 mg/L)): significantly decreased; decrease of VmaxF (human blood plasma [2]; concentration not given): 30–40%; hemolysis at 120 min, 5 mg/L [3]: 0.74%; hemolysis at 240 min, 5 mg/L [3]: 0.27%; hemolysis at 45 min, 50 mg/L [3]: 0%; hemolysis at 120 min, 50 mg/L [3]: 0.71%; hemolysis at 240 min, 50 mg/L [3]: 0.32%; hemolysis at 45 min, 500 mg/L [3]: 0.38%; hemolysis at 120 min, 500 mg/L [3]: 0.21%; hemolysis at 240 min, 500 mg/L [3]: 0.22%
3 | NCC(=O)NCC(=O)O [Amide 5, Glycylglycine hydrochloride] (H-Gly-Gly-OH) | 95.0 ± 10.5 % of Control | 92.0 ± 8.5 % of Control | 93.0 ± 8.3 % of Control |  | 106.44 ± 1.78 | 105.80 ± 2.97 | 90.08 ± 13.68% | 107.12 ± 4.65 | 105.88 ± 3.76 | 85.12 ± 16.98 % | 113.43 ± 7.86 | 109.83 ± 1.46 | 89.46 ± 10.48 % |  | 98.8 ± 5.8 % of Control | 101.1 ± 4.9 % of Control | 100.8 ± 2.6 % of Control | 99.1 ± 6.1 % of Control | 99.0 ± 4.7 % of Control | 97.8 ± 3.3 % of Control | procoagulant activity judged from VmaxC and Amax, in words (human blood plasma [2]; among the tested compounds): most evident procoagulant activity; Amax parameter, effect in words (human blood plasma [2]; full range of tested concentrations (10–50 µg/mL)): significantly higher; effect on fibrin polymerization (VmaxC) in words (human blood plasma [2]): Mild pro-coagulant effects
4 | NC[C@H]1CC[C@H](C(=O)O)CC1 [TA, trans-4-(aminomethyl)cyclohexane carboxylic acid, reference compound] |  |  |  | decreased | 106.67 ± 3.79 | 101.38 ± 7.89 | total inhibition | 105.87 ± 6.23 | 104.75 ± 9.98 | total inhibition | 106.64 ± 4.65 | 104.85 ± 12.06 | total inhibition |  |  |  |  |  |  |  | prothrombin time, effect versus control in words (human blood plasma [1]; concentration not specified (10, 25, 50 mg/L tested), listed as tranexamic acid): slightly shortened; also recorded: slightly but statistically significantly reduced; effect on fibrin polymerization (VmaxC) in words (human blood plasma [2]): did not influence; aPTT, effect versus control in words (human blood plasma [4]): significantly decreased; aPTT, effect versus control in words (human blood plasma [4]; listed as tranexamic acid): slightly shortened; TT, effect versus control in words (human blood plasma [5]; all used concentrations (10, 25, 50 mg/L)): no effects
